Experimental data published in ChEMBL document CHEMBL2311259, “Synthesis of novel chromene derivatives of expected antitumor activity” (Eur J Med Chem, 2013).

Each compound was assayed on MCF7 (assay: Ratio of colchicine IC50 to compound IC50 for human MCF7 cells by SRB assay).
Format: functional

| SMILES | Ratio IC50 |
| --- | --- |
| COc1ccc2c(c1)Oc1ncn(C)c(=N)c1C2c1ccc(Cl)cc1 (racemic) | 2 |
| COc1ccc(-c2nc3c4c(ncn3n2)Oc2cc(OC)ccc2C4c2ccc(Cl)cc2)cc1 (racemic) | 1.5 |
| CCOC(=O)c1nc2c3c(ncn2n1)Oc1cc(OCC)ccc1C3c1ccc(Cl)cc1 (racemic) | 2 |
| COc1ccc2c(c1)Oc1ncn(N)c(=N)c1C2c1ccc(Cl)cc1 (mixture of isomers) | 1.5 |
| CCOc1ccc2c(c1)Oc1ncn3nc(-c4ccc(OC)cc4)nc3c1C2c1ccc(Cl)cc1 (racemic) | 1.5 |
